The source of these data is patent US20200102264A1, “MARMELIN ANALOGS AND METHODS OF USE IN CANCER TREATMENT” (THE UNIVERSITY OF KANSAS, priority 2014, published 2020).

Molecules are shown by their SMILES. “Also recorded” adds a separate entry of the source.

One experiment concerns SW480 colon cancer cells. The experiment in a line: hexoseaminidase cell proliferation assay, SW480. The class given is cell-based. From the text: Using hexoseaminidase assay, we determined the effect of the compounds on cell proliferation. […]
Using hexoseaminidase assay, we determined the effect of the compounds on cell proliferation. […] […] […] Overall, the analogs can be used as chemotherapeutic agents against colon and pancreatic cancer.

In the next experiment the test system is HCT116 cells. The experiment is described as follows: cell cycle analysis, HCT116. The experiment is classed as cell-based. The conditions noted are these: HCT116, Table 3.
Another experiment concerns SW480 cells. The experiment is described as follows: cell cycle analysis, SW480. The experiment is classed as cell-based. The conditions noted are these: SW480, Table 3. As for the experimental part: The analogs were tested to determine the ability induce death of colon cancer cells.
Experiment [1] concerns colon, pancreatic and bladder cancer cells. The experiment is described as follows: hexoseaminidase cell proliferation assay, summaries over cell lines. The experiment is classed as cell-based. The conditions noted are these: dose and time dependent. A digest of the protocol:
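Hexosaminidase read-out of cell proliferation; IC50 determined after 48 h exposure.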

The test system of a further experiment is cancer stem cells. The experiment is described as follows: colonosphere formation. The class given is cell-based. As for the experimental part: It was also determined the analogs inhibit colonosphere formation from cancer stem cells. […] The columns are 0, 10, 25, and 50 micromolar concentrations of the compounds labeled by rows.
The effect of the compounds on colonosphere formation was determined. […] Overall, the analogs have shown they can be used as chemotherapeutic agents against colon, pancreatic and bladder cancer.

For another experiment, the system named is Notch-1, Jagged-1, Hes-1. The experiment in a line: Notch signaling-related proteins. The class given is cell-based. The conditions noted are these: two colon cancer cells. From the text: Notch signaling also plays a fundamental role in the differentiation and maintenance of stem cells. […] We next determined the effect of THB or THBCD on Notch signaling-related proteins in the two colon cancer cells.

Another experiment has as its target T1, DCLK1 (Homo sapiens, UniProt O15075).
T1 construct: we performed an in vitro kinase assay using recombinant DCLK1
The experiment in a line: in vitro kinase assay using recombinant DCLK1. The settings on record: recombinant DCLK1, dose dependent. The experiment is classed as biochemical. The source says: DCLK1 encodes a calmodulin-like kinase domain, and has homology to calmodulin kinases CAMKII and CAMKIV. We performed homology modeling and determined that THB can interact with the kinase domain with binding energy of −5.94. Furthermore we performed an in vitro kinase assay using recombinant DCLK1. […] Furthermore, THB and THBCD inhibit cancer stem cell marker DCLK1 expression in the xenograft tumors in both immunohistochemistry and western blot analysis (data not shown).

T1 sequence (O15075 whole entry): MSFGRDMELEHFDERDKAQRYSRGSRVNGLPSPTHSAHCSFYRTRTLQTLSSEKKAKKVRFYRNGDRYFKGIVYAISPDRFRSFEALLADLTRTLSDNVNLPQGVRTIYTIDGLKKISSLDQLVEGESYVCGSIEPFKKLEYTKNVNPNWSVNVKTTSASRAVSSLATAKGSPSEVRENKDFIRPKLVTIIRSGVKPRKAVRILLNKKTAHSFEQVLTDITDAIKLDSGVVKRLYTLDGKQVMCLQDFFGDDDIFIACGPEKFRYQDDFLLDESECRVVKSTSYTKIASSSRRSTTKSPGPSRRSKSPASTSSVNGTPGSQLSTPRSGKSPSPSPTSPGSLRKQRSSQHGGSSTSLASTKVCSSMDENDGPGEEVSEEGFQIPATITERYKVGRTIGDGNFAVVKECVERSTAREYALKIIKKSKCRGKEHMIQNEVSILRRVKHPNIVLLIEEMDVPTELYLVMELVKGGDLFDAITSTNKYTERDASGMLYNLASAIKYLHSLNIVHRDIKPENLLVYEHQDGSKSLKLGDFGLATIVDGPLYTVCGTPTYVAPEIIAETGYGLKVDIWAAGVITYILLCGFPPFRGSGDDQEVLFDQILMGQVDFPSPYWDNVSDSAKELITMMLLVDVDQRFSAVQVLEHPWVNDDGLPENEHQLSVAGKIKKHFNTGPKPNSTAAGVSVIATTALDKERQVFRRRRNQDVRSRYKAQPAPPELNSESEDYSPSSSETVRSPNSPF

Regarding `O=C(N/N=C/c1ccc(O)c(O)c1O)c1cc2ccccc2cc1O` [MRL THB], the IC50 (as a rule, the point on the concentration scale where inhibition reaches its midpoint) in the experiment on SW480 colon cancer cells (SW480, 24 h) is greater than 50 µM. This compound also registered an IC50 with SW480 colon cancer cells (SW480, 48 h) of 10 µM. For the same compound, inhibition with SW480 colon cancer cells (SW480, 72 h) was half-maximal at 10 µM (IC50). For the same compound, inhibition with SW480 colon cancer cells (SW480, 72 h, listed as THB) was half-maximal at 9 µM (IC50). In addition, in the experiment on HCT116 cells, the “G0/G1 (%)” value worked out at 17.2%, the “G2M (%)” value was 19.7%, the “S (%)” value came out at 28.1% and the “SubG0 Dead Cells (%)” value is reported as 29.0%. Moreover, in the experiment with SW480 cells, the “G0/G1 (%)” value is 39.5%, the “G2M (%)” value came to 26.8%, the “S (%)” value was 21.8% and the “SubG0 Dead Cells (%)” value was determined as 10.8%. Besides, the “inhibition of cell proliferation (in words)” value in experiment [1] is “potent inhibitor; also recorded: inhibit proliferation”. The colonosphere formation result in the experiment with cancer stem cells is reported as “significantly inhibited colonosphere formation”. Moreover, in the experiment on Notch-1, Jagged-1, Hes-1, the Hes-1 expression result is recorded as “reduced expression”; the “Notch-1 and Jagged-1” value is recorded as “downregulated”. Further, at DCLK1, the DCLK1 kinase activity entry is “significantly reduced”.
